Test results as given in US20140023611A1 (priority 2010, published 2014).

How the values were obtained:
[1] = biological target: T1, human NaP2b (SLC34A2) (Homo sapiens, UniProt O95436); test: Inhibition of NaP2b-mediated Pi (33P) uptake in transfected HEK293 cells, human NaP2b; assay type: cell-based; details: read-out: pIC50 range for human NaP2b (converted)
T1 construct: host or cells: HEK293
T1 sequence (O95436 1-690): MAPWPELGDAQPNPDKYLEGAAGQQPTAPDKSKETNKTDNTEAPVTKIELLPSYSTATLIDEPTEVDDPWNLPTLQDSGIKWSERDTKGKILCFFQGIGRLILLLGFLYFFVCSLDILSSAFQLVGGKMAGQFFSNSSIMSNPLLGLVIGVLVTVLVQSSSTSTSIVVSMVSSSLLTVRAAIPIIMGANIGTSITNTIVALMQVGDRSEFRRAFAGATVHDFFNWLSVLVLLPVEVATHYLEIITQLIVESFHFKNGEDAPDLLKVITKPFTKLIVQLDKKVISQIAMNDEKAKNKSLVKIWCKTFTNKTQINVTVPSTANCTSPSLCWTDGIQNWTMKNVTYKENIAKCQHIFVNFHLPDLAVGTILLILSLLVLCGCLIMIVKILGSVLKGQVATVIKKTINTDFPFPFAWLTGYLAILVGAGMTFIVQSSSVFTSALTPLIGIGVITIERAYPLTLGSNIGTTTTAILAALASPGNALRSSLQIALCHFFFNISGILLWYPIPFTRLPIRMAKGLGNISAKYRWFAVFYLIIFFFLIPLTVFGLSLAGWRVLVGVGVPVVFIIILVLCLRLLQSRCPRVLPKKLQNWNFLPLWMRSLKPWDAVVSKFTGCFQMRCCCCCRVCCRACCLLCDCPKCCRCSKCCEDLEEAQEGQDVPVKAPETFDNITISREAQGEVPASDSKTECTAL
Outline: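 Uptake of 33P-phosphate (100 uM KH2PO4 carrier, sodium vs choline buffer, pH 7.4) measured after 3-30 min at room temperature, with test compound at twelve concentrations from 0.1 nM to 30 uM in duplicate. Cells were HEK293 transfected with mutated human NaP2b (Thr insertion after 37, N39D) and treated with a PiT-silencing agent. pIC50 values from scintillation counts.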

[2] = Fecal recovery of orally administered compounds; assay type: in vivo, Sprague-Dawley rats; details: Structure (I) examples, Table 16; rat, oral gavage, feces collected until 48 hr after dosing
Outline: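 After oral dosing, feces collected in metabolic cages up to 48 h, lyophilized and ground. Duplicate weighed portions per animal extracted with organic solvent under non-compound-optimized conditions, so recovery may be a minimal estimate.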

[3] = Stability of compounds in simulated gastric fluid (SGF); assay type: in vitro ADME; details: simulated gastric fluid (3 mg/mL pepsin), incubation time 6 hr, relative to t=0
Outline: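 Compounds at […] were incubated 3 or 6 hr in USP simulated gastric fluid with 3 mg/mL pepsin or simulated intestinal fluid with 3 mg/mL pancreatin. Remaining compound was quantified by HPLC-UV or HPLC-MS peak area % and reported as percent of the t=0 level in the same medium.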

IC50 [1]	% recovered in feces [2]	% remaining, SGF [3]	SMILES
< 1000 nM	<20%	>80%	CCN(CC)c1ccc(NC(=O)c2cccc(CCCOCCOCCOCCOCCOCCOCCOCCOCCOC)c2)c(-c2cc(C(=O)NCc3cccc(C(F)(F)F)c3)ccn2)c1 [Example 269, 2-(2-(3-(2,5,8,11,14,17,20,23,26-nonaoxanonacosan-29-yl)benzamido)-5-(diethylamino)phenyl)-N-(3-(trifluoromethyl)benzyl)isonicotinamide]
1000 to 7940 nM	<20%	>80%	CN(CCOCCOCCOCCC(=O)O)C(=O)Cc1cccc(SCc2cccc(C(=O)Nc3ccc(N4CCCCC4)cc3-c3cc(C(=O)NCc4cccc(C(F)(F)F)c4)ccn3)c2)c1 [Example 138]
< 1000 nM	<20%	>80%	CCN(CC)c1ccc(NC(=O)c2cccc(CSCCOCCOCCOCCOCCOCCOCCOCCOC)c2)c(-c2cc(C(=O)NCc3cccc(C(F)(F)F)c3)ccn2)c1 [Example 265, 2-(2-(3-(2,5,8,11,14,17,20,23-octaoxa-26-thiaheptacosan-27-yl)benzamido)-5-(diethylamino)phenyl)-N-(3-(trifluoromethyl)benzyl)isonicotinamide]
1260 nM	>80%	>80%	O=C(NCc1cccc(C(F)(F)F)c1)c1ccnc(-c2cc(N3CCCCC3)ccc2NC(=O)c2cccc(CSc3ccc(C(=O)O)c(Br)c3)c2)c1 [Example 8.21]
< 1000 nM	20-80%	>80%	CCN(CC)c1ccc(NC(=O)c2cccc(CSCCOCCOCCOCCOCCC(=O)O)c2)c(-c2cc(C(=O)NCc3cccc(C(F)(F)F)c3)ccn2)c1 [Example 162, 1-(3-(4-(diethylamino)-2-(4-(3-(trifluoromethyl)benzylcarbamoyl)pyridin-2-yl)phenylcarbamoyl)phenyl)-5,8,11,14-tetraoxa-2-thiaheptadecan-17-oic acid]
< 1000 nM	<20%	>80%	CCN(CC)c1ccc(NC(=O)c2cccc(CSCCOCCOCCOCCOCCOCCOCCOCCOC)c2)c(-c2cc(C(=O)N[C@H]3CCCc4ccccc43)ccn2)c1 [Example 286, (S)-2-(2-(3-(2,5,8,11,14,17,20,23-octaoxa-26-thiaheptacosan-27-yl)benzamido)-5-(diethylamino)phenyl)-N-(1,2,3,4-tetrahydronaphthalen-1-yl)isonicotinamide]
